Experimental data as given in paper PMC8338929, “Acetylation turns leucine into a drug by membrane transporter switching” (Scientific Reports, 2021).

Target: T1, human MCT1 (SLC16A1) (Homo sapiens, UniProt P53985)
T1 construct: host or cells: MDCK-II
T1 sequence (P53985 1-500): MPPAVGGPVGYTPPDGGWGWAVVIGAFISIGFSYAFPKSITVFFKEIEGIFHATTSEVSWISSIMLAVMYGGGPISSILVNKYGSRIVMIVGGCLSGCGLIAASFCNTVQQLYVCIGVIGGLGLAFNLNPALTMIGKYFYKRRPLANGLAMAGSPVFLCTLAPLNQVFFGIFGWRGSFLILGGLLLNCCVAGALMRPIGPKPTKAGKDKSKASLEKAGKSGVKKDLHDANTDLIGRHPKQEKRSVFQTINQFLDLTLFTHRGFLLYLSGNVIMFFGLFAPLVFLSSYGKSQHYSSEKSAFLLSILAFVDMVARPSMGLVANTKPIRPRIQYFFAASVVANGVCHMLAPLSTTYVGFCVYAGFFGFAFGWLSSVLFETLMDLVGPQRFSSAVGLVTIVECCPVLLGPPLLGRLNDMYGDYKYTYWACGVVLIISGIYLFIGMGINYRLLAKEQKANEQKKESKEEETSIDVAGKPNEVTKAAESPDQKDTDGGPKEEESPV
Assay: MCT1-mediated cellular uptake in transfected MDCK-II cells
Assay type: cell-based
Details: 1 min, room temperature, Michaelis-Menten fit
Method: Transport studies with human PepT1 (SLC15A1), LAT1 (SLC7A5) and MCT1 (SLC16A1) were conducted in MDCK-II cells expressing the human transporter or control cells expressing a vector with Green Fluorescence Protein. Cells were transfected using a proprietary, transient transfection system (OPTI-EXPRESSION Technology, BioIVT). The results from the control cells were used to correct for substrate permeation by routes other than the transporter being investigated in the study. […] Specifically, Net Transporter Mediated Substrate Uptake (pmol/min/cm^2) = (Cellular accumulation in the presence of the transporter) − (Mean cellular accumulation in the absence of the transporter). MDCK-II cells were maintained in DMEM with low glucose and 10% FBS. Cells were used at passages up to 40 were seeded at 60,000 ± 10,000 cells/well on 96-well plates approximately 24 h before transfection, and transport assays were performed approximately 48 h after transfection. Transport studies in MDCK-II cells were conducted in 96-well insert plates with permeable membrane (0.4 µm) and receiver tray (Millipore MultiScreen Filter 96-well).
Transport studies with PepT1 were conducted in 96-well cell culture plate with wells containing a monolayer of MDCK-II cells grown on a permeable support and a corresponding 96-well receiver tray. Cell plates are maintained at 37 °C in 5% CO2 atmosphere prior to initiation of the transport experiment. Pre-incubation was conducted in HBSS, pH 7.4. The transport experiments were conducted in HBSS with Bis–Tris, pH 5.5, without phenol red. Both pre-incubation and incubation were conducted at 37 °C. All final assay solutions of probe substrate, reference inhibitor or test article contain 0.5% (v/v) DMSO (vehicle control). The culture plate insert […] was washed with warm HBSS three times and then blotted dry. The culture plate wells […] were washed with warm HBSS three times. […] Then a 30-µL sample was taken and mixed with 200 µL of scintillation fluid and scintillation counted (1450 Microbeta, Perkin-Elmer). […]

SMILES: CC(=O)N[C@@H](CC(C)C)C(=O)O [N-acetyl-L-leucine]
- Vmax MCT1 uptake: 224
